Results reported in patent US20110207745A1 (priority 2009, published 2011).
In brackets after ≈: the same amount, converted by molar mass. Where two headings read alike, the source gives them in different places.

Experiments:
[1] = for Water content: 3 days, KF
Description: (§1) Stress Experiments. Solids are stressed under different temperature or relative humidity (RH) environments for a measured time period. Specific RH values are achieved by placing the sample inside sealed chambers containing saturated salt solutions, as known in the art. The salt solutions are selected and prepared following an ASTM standard procedure. Samples are analyzed by XRPD immediately after removal from the stress environment.
Modulated differential scanning calorimetry data are obtained on a TA Instruments differential scanning calorimeter 2920 equipped with a refrigerated cooling system (RCS). The sample is placed into an aluminum DSC pan, and the weight is accurately recorded. The pan is covered with a lid with is either crimped or uncrimped. MDSC data are obtained using a modulation amplitude of +/−0.8° C. and a 60 second period with an underlying heating rate of about 2° C./min. The temperature and the heat capacity are calibrated using indium metal and sapphire as the calibration standards, respectively. The reported glass transition temperature is obtained from the inflection of the step change in the reversible heat flow versus temperature curve.
Physical Stability. Physical stability measurements were performed on the amorphous form of the mono-HCl salt of Compound A1. The amorphous HCl salt prepared by spray drying was set down under two conditions (40° C./75% RH and 25° C./60% RH) for physical stability studies.
To investigate the impact of water on the amorphous mono-HCl salt, the material was stored at various RH conditions controlled by saturated salt solutions. Each material was checked by PLM (morphology), KF (water content), and mDSC (Tg value) after 3 days.

[2] = HPLC area %, listed as Amorphous Mono-HCl Salt of Compound A1
Description: as §1
Analyses are carried out on an Agilent® model 1100 high performance liquid chromatograph using gradient elution on a reversed phase column utilizing ultraviolet (UV) detection. Approximately 25 mg of the sample is weighed accurately and dissolved in methanol/water/trifluoroacetic acid (35:65:0.05) to a volume of 50 mL. The sample solution is analysed using the conditions specified below:
The content of the drug and related substances are quantified by area (%).
Chemical Stability. The chemical stability of Form I of the mono-HCl salt of Compound A1 was assessed by stressing the material at various temperature/relative humidity/light conditions, then analyzing by HPLC.
Chemical Stability Data. The chemical stability of a sample of Form I of the sesquifumarate salt of Compound A1 was assessed by stressing the material at various temperature/relative humidity/light conditions, then analyzing by HPLC.

[3] = Equilibrium solubility at 25° C.; format: physicochemical; conditions: thermodynamic from solid
Source text: (§2) Solubility and Dissolution Rate Data. […]

[4] = Solubility in water and aqueous acid media; format: physicochemical; conditions: thermodynamic from solid
Description: A weighed sample is treated with aliquots of the test solvent at room temperature or elevated temperature. Complete dissolution of the test material is determined by visual inspection. Solubility is estimated based on the total solvent used to provide complete dissolution. The actual solubility may be greater than the value calculated because of the use of solvent aliquots that were too large or due to a slow rate of dissolution. […] If complete dissolution is achieved as a result of only one aliquot addition, the solubility is expressed as “greater than”. Solubility of a salt may be expressed as the mass of salt dissolved per unit volume of solution, (denoted as, for example, “mg/mL”), or as the free base equivalent (denoted as, for example, “mgA/mL”).
(§3) Solubility and Dissolution Rate Data.

[5] = Solubility in simulated biological media; format: physicochemical; conditions: thermodynamic from solid, mean ± SD, n = 2
Source text: as §3, §2

[6] = Partition coefficient LogD; format: physicochemical; conditions: pH 7.4; free base
[7] = Dissociation constant (pKa); format: physicochemical; conditions: piperazine nitrogen of free base
[8] = test system: rat; assay: Punished responding procedure (modified Geller-Seifter conflict test); conditions: for Rate of Responding: Punished responding / Rate of Responding: Unpunished responding: 60 minute pretreatment
Source text: Method. In the conflict test, hungry animals were trained to lever-press for food delivery in a standard operant chamber under 2 conditions. In the first condition, referred to as the unsuppressed component, food was delivered on average after 17 lever-presses were made (also called a VR17 schedule of reinforcement). In the second condition, referred to as the suppressed component and signaled by flashing lights inside the operant chamber, food was also delivered following an average of 17 lever-presses, but electric shock was additionally delivered to the floor of the cage under a separate VR17 schedule. Daily sessions consisted of 5 alternating presentations of each component type: suppressed (3 minutes in duration) and unsuppressed (2 minutes in duration). The number of lever presses emitted in the suppressed component was obviously low relative to the unsuppressed component.
Drug Administration and Preparation. […] Monday and Wednesday were washout/baseline days.
Apparatus. Standard 2-lever operant chambers were used (Med Associates). The chambers were fitted with 2 retractable response levers and a stimulus lamp over each of the 2 levers. A pellet dispenser delivered 45 mg food pellets, (Bio Serv) to a cup located inside of the chamber below and between the 2 response levers. A lamp at the top and back of the chamber served as houselights. The grid floors of the operant chambers were interfaced to shock generators and scramblers (Med Associates). All events in the chambers were controlled and monitored by a microprocessor.
Procedures. There were 2 components in the procedure: 1) an unsuppressed responding component (unpunished) with 2 minutes in duration; and 2) a suppressed responding component (punished) with 3 minutes in duration.
In the unpunished component, the houselights and both stimulus lamps over the response levers were turned on, the lever on the left-hand side of the chamber extended, and a food pellet was delivered following an average of 17 responses on the lever in the chamber (range 3 to 40 responses)—a variable-ratio 17 schedule (VR17).
In the punished component (which followed the unpunished component), the right-hand lever was extended into the chamber; the stimulus lamps and houselights were turned on and off at 1 second intervals, in succession, which served as a cue for this component; and food was available under a VR17 schedule, but was accompanied by an electrical current (0.5 second duration) that was delivered to the grid floor of the chamber under an independent VR17 schedule. The level of the current was adjusted for each individual subject until responding was reduced in the punished component to a level that was about 5% to 10% that of the unpunished component, and ranged from 0.2 mA to 0.75 mA. Unpunished and punished components were separated by 10 second time-out periods in which both response levers were retracted and all stimulus lamps turned off. 2 minute unpunished and 3 minute punished components alternated until 5 of each were completed. Daily sessions always began with the unpunished responding component. […] Several doses were tested on a given test day in different subjects. Each dose, then, was tested in different sub-set of rats.
Data Analysis. The dependent variables recorded were the rate of responding in unpunished and punished components (total responses/total time under the component) and the number of shocks delivered.

[9] = 0.1M phosphate buffer, pH 7.5, aqueous buffer, initial pH 7.5
[10] = FeSSIF (fed-state simulated intestinal fluid), pH 5.03, fessif, initial pH 5.03
[11] = SGF (simulated gastric fluid), pH 1.3, simulated gastric fluid, initial pH 1.3
[12] = simulated gastric fluid (SGF), pH 1.3, simulated gastric fluid, SGF (simulated gastric fluid), initial pH 1.3

With `CCN(CC)C(=O)c1ccc([C@H](c2cccc(N)c2)N2CCN(Cc3ccc(F)cc3)CC2)cc1` [4-{(R)-(3-aminophenyl)[4-(4-fluorobenzyl)piperazin-1-yl]methyl}-N,N-diethylbenzamide] the physical stability [1] was “physically stable”, the “physical stability (appearance)” value [1] was “deliquesced and became brown in color” and the Water content ([1]; 23.1% RH (saturated KOAc)) was 3.2%. It also gave a Water content ([1]; 43.3% RH (saturated K2CO3)) of 5.0%, a Water content ([1]; 54.4% RH (saturated Mg(NO3)2)) of 6.2% and a Water content ([1]; 75.5% RH (saturated NaCl)) of 8.2%. It also gave a Water content ([1]; 85.1% RH (saturated KCl), listed as Amorphous Mono-HCl Salt of Compound A1) of 9.5%, a Water content ([1]; 85.1% RH (saturated KCl), listed as amorphous mono-HCl salt) of 9.5% and a Water content ([1]; 97.3% RH (saturated K2SO4)) of 14.7%. For the same compound, the “water content (Karl-Fisher) of the resulting material” value ([1]; after 17 days at 25° C./60% RH (open)) was 6.1%, the “water content of the initial material” value ([1]; initial material, before storage) was “about 2.8%” and the “% Purity after 60° C./80% RH, 2 wks” value ([2]; 60° C./80% RH, 2 weeks) was 94.4%. The “% Purity after 60° C./80% RH, 4 wks” value ([2]; 60° C./80% RH, 4 weeks) was 94.5%, the “% Purity after 80° C., 2 wks” value ([2]; 80° C., 2 weeks) was 98.7% and the “% Purity after 80° C., 4 wks” value ([2]; 80° C., 4 weeks) was 98.6%. The “Purity after Photostability 3X ICH conditions” value ([2]; Photostability 3X ICH conditions) was 82.3%, the “Initial Purity” value ([2]; initial, before storage) was 98.8% and the solubility thermodynamic ([3]; 0.1 M citrate buffer, aqueous buffer, pH 4.5, Citrate 0.1M) was 15.6 mg/mL (≈ 32.9 mM). The solubility thermodynamic ([3]; 0.1 M phosphate buffer, aqueous buffer, pH 7.8, Phosphate 0.1M) was 0.16 mg/mL (≈ 0.337 mM), the solubility thermodynamic ([3]; aqueous buffer, 0.1N NaOH) was 0.092 mg/mL (≈ 0.194 mM) and the solubility thermodynamic ([3]; simulated gastric fluid, 0.1N HCl) was 21.6 mg/mL (≈ 45.5 mM). It also gave a solubility thermodynamic ([3]; Pure water) of 8.7 mg/mL (≈ 18.3 mM), a solubility ([4]; 0.1M phosphate acid, pH 3.3, aqueous buffer, 0.1M phosphate acid, pH=3.3, read-out: solubility in 0.1M phosphate acid) greater than 40 mg/mL and a solubility ([4]; 0.1M phosphate acid, pH 3.5, aqueous buffer, 0.1M phosphate acid, pH=3.5, read-out: solubility in 0.1M phosphate acid) of 12 mg/mL (≈ 25.3 mM). The solubility ([4]; 0.1 M phosphoric acid, pH 3.3, aqueous buffer, ambient temperature, pH of about 3.3 (0.1 M phosphoric acid), read-out: solubility in water (0.1 M phosphoric acid)) was greater than 40 mg/mL, the solubility ([4]; 0.1 M phosphoric acid, pH 3.5, aqueous buffer, ambient temperature, pH of about 3.5 (0.1 M phosphoric acid), read-out: solubility in water (0.1 M phosphoric acid)) was roughly 12 mg/mL (≈ 25.3 mM) and the solubility ([4]; 0.1N HCl, pH 2, simulated gastric fluid, 0.1N HCl, pH about 2, read-out: solubility in 0.1N HCl) was 24.9 mg/mL (≈ 52.5 mM). The solubility ([4]; water, pH 3.8, water, ambient temperature, water with a pH of about 3.8, read-out: solubility in water) was roughly 24 mg/mL (≈ 50.6 mM), the solubility ([4]; water, pH 3.8, water, water, pH=3.8, read-out: solubility in water) was 24 mg/mL (≈ 50.6 mM) and the solubility ([4]; water, pH 4.2, water, ambient temperature, water with a pH of about 4.2, read-out: solubility in water) was greater than 41 mg/mL. For the same compound, the solubility ([4]; water, pH 4.2, water, water, pH=4.2, read-out: solubility in water) was greater than 41 mg/mL, the solubility at 3 h [5, 9] was 0.29 mg/mL (≈ 0.611 mM) and the solubility at 24 h [5, 9] was 0.1 mg/mL (≈ 0.211 mM). It also gave a solubility at 3 h [5, 10] of 3.4 mg/mL (≈ 7.16 mM), a solubility at 24 h [5, 10] of 3.06 mg/mL (≈ 6.45 mM) and a solubility at 3 h [5, 11] of 23 mg/mL (≈ 48.5 mM). It also gave a solubility at 24 h [5, 11] of 22 mg/mL (≈ 46.4 mM), a solubility at 3 h [5, 12] of 23.1 ± 0.12 mg/mL (≈ 48.7 mM) and a solubility at 24 h [5, 12] of 21.9 ± 0.23 mg/mL (≈ 46.1 mM).

For `CCN(CC)C(=O)c1ccc([C@H](c2cccc(N)c2)N2CCN(Cc3ccc(F)cc3)CC2)cc1` [Compound A1, 4-{(R)-(3-aminophenyl)[4-(4-fluorobenzyl)piperazin-1-yl]methyl}-N,N-diethylbenzamide], the logD [6] was 2.53, the pKa [7] was 7.26 and the sedative/hyperactive properties ([8]; observations of test subjects in their home cage) was “does not possess sedative/hyperactive properties”. The “efficacy in the model” value ([8]; rat, 0.21 μmol/kg) was “not effective”, the “Percent of Control: Punished responding” value ([8]; rat, 0.21 μmol/kg by mouth) was 107 ± 19.3% of Control and the “Percent of Control: Unpunished responding” value ([8]; rat, 0.21 μmol/kg by mouth) was 103 ± 1.63% of Control. The “Rate of Responding: Punished responding” value ([8]; rat, 0.21 μmol/kg by mouth) was 0.11 ± 0.02, the “Rate of Responding: Unpunished responding” value (“Rate … Unpunished responding” below) ([8]; rat, 0.21 μmol/kg by mouth) was 2.06 ± 0.11 and the “Percent of Control: Punished responding” value ([8]; rat, 0.63 μmol/kg by mouth) was 273 ± 39.2% of Control. For the same compound, the “Percent of Control: Unpunished responding” value ([8]; rat, 0.63 μmol/kg by mouth) was 92.1 ± 5.12% of Control, the “Rate of Responding: Punished responding” value ([8]; rat, 0.63 μmol/kg by mouth) was 0.24 ± 0.03 and the “Rate … Unpunished responding” value ([8]; rat, 0.63 μmol/kg by mouth) was 2.02 ± 0.14. The “Percent of Control: Punished responding” value ([8]; rat, 2.1 μmol/kg by mouth) was 298 ± 132% of Control, the “Percent of Control: Unpunished responding” value ([8]; rat, 2.1 μmol/kg by mouth) was 106 ± 5.60% of Control and the “Rate of Responding: Punished responding” value ([8]; rat, 2.1 μmol/kg by mouth) was 0.18 ± 0.04. For the same compound, the “Rate … Unpunished responding” value ([8]; rat, 2.1 μmol/kg by mouth) was 1.95 ± 0.15, the “increase in punished responding (maximally efficacious dose)” value ([8]; rat, 2.11 μmol/kg) was “about 300%” and the “Percent of Control: Punished responding” value ([8]; rat, 6.3 μmol/kg by mouth) was 207 ± 67.2% of Control. For the same compound, the “Percent of Control: Unpunished responding” value ([8]; rat, 6.3 μmol/kg by mouth) was 106 ± 2.94% of Control, the “Rate of Responding: Punished responding” value ([8]; rat, 6.3 μmol/kg by mouth) was 0.17 ± 0.03 and the “Rate … Unpunished responding” value ([8]; rat, 6.3 μmol/kg by mouth) was 1.92 ± 0.13. The “Percent of Control: Punished responding” value ([8]; rat, 21.1 μmol/kg by mouth) was 272 ± 100% of Control, the “Percent of Control: Unpunished responding” value ([8]; rat, 21.1 μmol/kg by mouth) was 95.5 ± 4.08% of Control and the “Rate of Responding: Punished responding” value ([8]; rat, 21.1 μmol/kg by mouth) was 0.20 ± 0.04. The “Rate … Unpunished responding” value ([8]; rat, 21.1 μmol/kg by mouth) was 1.69 ± 0.12 and the “effect on unpunished responding” value ([8]; rat, at the doses tested (0.21 to 21.1 μmol/kg)) was “did not significantly decrease”.
